Test results taken from patent US20130090305A1, “METHOD USING A DIETARY SUPPLEMENT FOR HEALING OR REGRESSING SYMPTOMS OF GASTROESOPHAGEAL REFLUX DISEASE, GASTRITIS AND ULCERS” (priority 2006, published 2013).

Columns and labels:
[1] = test system: chronic GERD, ulcer of 6 cm in the esophagus; assay: Case of a patient with chronic GERD and a 6 cm esophageal ulcer; assay type: in vivo, human; conditions: before the formulation; regurgitation and heartburn
[2] = test system: spontaneous gastric ulcers; conditions: 4-week administration in the diet, young pigs; cited from earlier work
gastric acid secretion = conditions: cited from earlier work
[3] = test system: nitric oxide biosynthesis; conditions: cited from earlier work

Row | SMILES | relief of symptoms with earlier treatments [1] | incidence of spontaneous gastric ulcers [2] | action on gastric acid secretion (gastric acid secretion) | effect on nitric oxide biosynthesis [3]
1 | O=C([O-])O.[Na+] [baking soda] | Neither treatment produced even partial relief |  |  | 
2 | COc1ccc2[nH]cc(CCNC(C)=O)c2c1 [melatonin, N-Acetyl-5-methoxytryptamine] |  | significantly reduced | inhibitory action | inhibits
